Where two headings read alike, the source gives them in different places.
Legend:
[1] = cited from earlier work
[2] = tested on: primary human hepatocytes, NIH3T3 fibroblasts, BSEP, CYP3A4; settings: cited from earlier work
[3] = tested on: THLE or HepG2 cells, isolated mitochondria, BSEP; settings: cited from earlier work
[4] = tested on: PHH; settings: cited from earlier work
[5] = tested on: hLiMTs; settings: cited from earlier work
[6] = tested on: HepG2 C3A spheroid, BSEP, Glu/Gal in HepG2 cells, bioactivation; settings: cited from earlier work
[7] = plasma free fraction; cited from earlier work
[8] = cited from earlier work; remark: listed apart in the source
[9] = ref Chen 2011; cited from earlier work
[10] = tested on: hLiMTs; assay: Combined HCI (HCS) and cellular ATP 3D assay in hLiMTs; settings: for AC50 / minimal effective concentration: Homo sapiens
[11] = tested on: HepaRG spheroids; assay: Combined HCI (HCS) and cellular ATP 3D assay in HepaRG spheroids; settings: for AC50 / minimal effective concentration: Homo sapiens
[12] = In vitro Assay, ref Schadt 2015
[13] = Modeled in vitro assays (cytotoxicity, mitochondrial dysfunction, BSEP), ref Aleo et al. 2019
[14] = In vitro Assay, ref Proctor 2017
[15] = Microtissue model structural based (HCI), combined HCS and ATP, MEC < 25 × Cmax.tot cut-off

SMILES: CS(=O)(=O)CCNCc1ccc(-c2ccc3ncnc(Nc4ccc(OCc5cccc(F)c5)c(Cl)c4)c3c2)o1 [lapatinib]
- DILI severity category (Chen et al. [2016]) ([1]; LTKB DILIrank category, ref Chen et al. 2016): Most
- DILI severity category (Chen 2016) ([1]; human DILI classification, LTKB DILIrank, ref Chen et al. 2016): Most
- DILI severity category ([1]; human DILI severity, ref Chen et al.): Most
- DILI +VE (5-8), DILI -VE (-4) ([1]; ref Chen 2016): +VE
- DILI severity category ([1]; ref Chen 2016): vMost-DILI-Concern
- DILI in vitro assay prediction, Schadt (2015) ([2]; BSEP & Metabolism based, ref Schadt et al. 2015): +VE
- Cellular toxicity (3T3 cells) [2, 12]: +VE
- GSH adduct HML [2, 12]: +VE
- Hepatocyte cellular toxicity [2, 12]: -VE
- MitoTox 3T3 [2, 12]: -VE
- TDI CYP3A4 [2, 12]: +VE
- hBSEP inhibition [2, 12]: -VE
- Partition Hybrid HRM Score ([3]; In vitro Assay, ref Aleo 2019): +VE
- Ro2 Hybrid HRM Score ([3]; In vitro Assay, ref Aleo 2019): +VE
- Partition Hybrid HRM Score ≥4, Aleo (2019) [3, 13]: +VE (Partition Hybrid HRM Score ≥4)
- Partition Hybrid HRM Score ≥8, Aleo (2019) [3, 13]: +VE (Partition Hybrid HRM Score ≥8)
- Rule of Two hybrid HRM Score ≥3, Aleo (2019) [3, 13]: +VE (Rule of Two hybrid HRM Score ≥3)
- Rule of Two hybrid HRM Score ≥8, Aleo (2019) [3, 13]: +VE (Rule of Two hybrid HRM Score ≥8)
- PHH/100uM, Proctor (2017) ([4]; 2D PHH, ATP, IC50 threshold 100 µM, ref Proctor et al. 2017): +VE (IC50 threshold of 100 µM)
- PHH ATP <100uM [4, 14]: +VE (IC50 threshold of 100 µM)
- hLiMTs ATP <100uM [5, 14]: +VE (IC50 threshold of 100 µM)
- hLiMTs/100uM, Proctor (2017) ([5]; hLiMTs, ATP, IC50 threshold 100 µM, ref Proctor et al. 2017): +VE (IC50 threshold of 100 µM)
- Bayesian Machine Learning DILI prediction, Williams (2019) ([6]; Bayesian modeling, ref Williams et al. 2019): +VE
- Bayesian Machine Learning ([6]; In vitro Assay, ref Williams 2019): +VE
- fu [7]: 0.010
- Assigned DILI category ([8]; Chen et al. 2016 or literature alignment, ref Chen et al. 2016): 3
- In vivo DILI ([8]; ref Aleo 2019): +VE
- In vivo DILI ([8]; ref Proctor 2017): +VE
- In vivo DILI ([8]; ref Schadt 2015): +VE
- In vivo DILI ([8]; ref Williams 2019): +VE
- DILI Score (FDA) (1-8) [9]: 8
- AC50 ([10]; read-out: ATP endpoint AC50): 30.1 µM
- minimal effective concentration ([10]; read-out: ATP endpoint MEC): 12.6 µM
- AC50 ([10]; read-out: HCS endpoint AC50): 30.7 µM
- minimal effective concentration ([10]; read-out: HCS endpoint MEC): 1.79 µM
- DILI prediction hLiMTs (HCS-MEC) [10, 15]: +VE (MEC < 25 × Cmax.tot cut-off)
- hLiMTs <25x Avg Cmax ATP ([10]; hLiMTs, ATP endpoint, cut-off <25x Avg Cmax): +ve
- hLiMTs <100x Avg Cmaxu ATP ([10]; hLiMTs, ATP endpoint, cut-off <100x Avg Cmaxu): -ve
- hLiMTs <25x Avg Cmax HCS ([10]; hLiMTs, HCS endpoints, cut-off <25x Avg Cmax): +ve
- hLiMTs <100x Avg Cmaxu HCS ([10]; hLiMTs, HCS endpoints, cut-off <100x Avg Cmaxu): +ve (<100x Avg Cmaxu)
- hLiMTs <25x Avg Cmax All ([10]; hLiMTs, all endpoints (ATP and HCS), cut-off <25x Avg Cmax): +ve
- hLiMTs Cmax max All ([10]; hLiMTs, all endpoints, Cmax max used): +ve
- hLiMTs Cmax min All ([10]; hLiMTs, all endpoints, Cmax min used): +ve
- hLiMTs <10 uM All ([10]; hLiMTs, all endpoints, cut-off <10 uM): +ve (<10 uM)
- hLiMTs <100x Avg Cmaxu All ([10]; hLiMTs, all endpoints, cut-off <100x Avg Cmaxu): +ve (<100x Avg Cmaxu)
- HepaRG <25x Avg Cmax ATP ([11]; HepaRG, ATP endpoint, cut-off <25x Avg Cmax): +ve
- HepaRG <100x Avg Cmaxu ATP ([11]; HepaRG, ATP endpoint, cut-off <100x Avg Cmaxu): +ve (<100x Avg Cmaxu)
- HepaRG <25x Avg Cmax HCS ([11]; HepaRG, HCS endpoints, cut-off <25x Avg Cmax): +ve
- HepaRG <100x Avg Cmaxu HCS ([11]; HepaRG, HCS endpoints, cut-off <100x Avg Cmaxu): +ve (<100x Avg Cmaxu)
- HepaRG <25x Avg Cmax All ([11]; HepaRG, all endpoints (ATP and HCS), cut-off <25x Avg Cmax): +ve
- HepaRG Cmax max All ([11]; HepaRG, all endpoints, Cmax max used): +ve
- HepaRG Cmax min All ([11]; HepaRG, all endpoints, Cmax min used): +ve
- HepaRG <10 uM All ([11]; HepaRG, all endpoints, cut-off <10 uM): +ve (<10 uM)
- HepaRG <100x Avg Cmaxu All ([11]; HepaRG, all endpoints, cut-off <100x Avg Cmaxu): +ve (<100x Avg Cmaxu)
- AC50 ([11]; HepaRG, read-out: ATP endpoint AC50): 2.11 µM
- minimal effective concentration ([11]; HepaRG, read-out: ATP endpoint MEC): 1.21 µM
- AC50 ([11]; HepaRG, read-out: HCS endpoint AC50): 2.25 µM
- minimal effective concentration ([11]; HepaRG, read-out: HCS endpoint MEC): 0.768 µM
- DILI prediction HepaRG spheroids (HCS-MEC) [11, 15]: +VE (MEC < 25 × Cmax.tot cut-off)
